Several values for one entry are separate records, joined by “and”; a condition that tells them apart may be missing. Identical values can stand only once. Entries after “also recorded” stand apart in the source; their conditions may differ.
How the values were obtained:
CYP2C9 = CYP2C9 (Homo sapiens, UniProt P11712); assay: in vitro
5HT2A = 5HT2A (Homo sapiens, UniProt P28223); assay: Human 5HT2A inhibition assay (FLIPR calcium 6, 5HT stimulus, stably transfected HEK293 cells); type: cell-based; design: expressed in transfected cells; host or cells: HEK293; conditions: HEK293, 1 μM; read-out: % Inhibition at 1 μM (SD)
Procedure: The derivatives were evaluated at a concentration of 1 μM for their antagonist activity on the 5HT2A receptor (Tables 1–3)[33],[34]. […] The cells were stained with 100 μL of cytosolic calcium dye using the FLIPR calcium 6 assay solution (Molecular devices, #R8190) supplemented with 2.5 mM probenecid (Sigma; P8761) and incubated for 1 h at 37 °C. After 1 h, the designated amount of the compound was treated in each well and incubated for another 1 h at 37 °C. […] Experimental conditions for the 5HT subtypes can be found in the Supporting Information (Supplementary Table 1).

[1] = Hepatocyte stability test, monkey; type: in vitro ADME, cynomolgus monkey; conditions: male, cryopreserved hepatocytes, pH 7.4, read-out: Hepatocyte stability (% remaining after 3 h)
Procedure: Hepatocyte incubations for the test compound (10 μM final concentration, n = 2 per each time point) were carried out in mouse, rat, dog, monkey and human cryopreserved hepatocytes, resuspended at a density of 0.5 million cells/ml of modified Krebs-Henseleit buffer (KHB). The information regarding the hepatocytes used in the experiment is as follows: liverPool® 10-donor mixed gender human (BioIVT, Cat.No. X008001, lot EAV), male cynomolgus monkey (BioIVT, Cat.No. M00305, lot COJ), male Beagle dog (BioIVT, Cat.No. M00205, lot USY), male Sprague Dawley rat (BioIVT, Cat.No. M00005, lot TQE) and male CD1 mouse (BioIVT, Cat.No.005052, lot LFF). In addition, the compound was also incubated with blank KHB. The final concentration of solvent (DMSO) was 0.1% of the final volume. The incubations were performed for 3 hours at 37°C and pH 7.4. Reactions were terminated at 0 and 180 minutes by the addition of 3 volumes of stop solution (acetonitrile/methanol (2:1, v/v) containing internal standard–diclofenac at 100 ng/ml). Samples (compound spiked buffer and compound spiked hepatocytes, as well as blank samples, i.e. hepatocytes with the same DMSO%) were then centrifuged and aliquots were transferred to 96-deep micronic tubes and frozen at -80 °C until LC-MS/MS analysis. […]

TNF-α = assay: CDAHFD mice: TNF-α immunohistochemical staining; type: in vivo, mouse; design: TNF-α immunohistochemical staining (TNF-a area), individual mouse / TNF-α immunohistochemical staining (TNF-a area), Average: unit not given here; conditions: for TNF-α immunohistochemical staining (TNF-a area), Average / TNF-α immunohistochemical staining (TNF-a area), individual mouse: CDAHFD mice; for TNF-α immunohistochemical staining (TNF-a area), Average: group average n=5, CDAHFD+Vehicle 9.246, Vehicle 2.978; for TNF-α immunohistochemical staining (TNF-a area), individual mouse: individual animals No. 1-5 (Fig.4g)
Source text: C57BL/6 J male mice were purchased from the Japan SLC. Inc (Hamamatsu, Japan). Mice (5 weeks old) were fed Teklad Certitied Irradiated Global 18% protein rodent diet purchased from Dooyeol Biotech Co. Ltd (Seoul, South Korea) during the acclimation period. The liver fibrosis/inflammation-induced groups were CDAHFD-fed (A06071302, Research diet). […] All animal experiments complied with the relevant ethical regulations.
Mouse liver tissues were fixed in 4% formalin solution (Sigma–Aldrich, St. Louis, MO, USA) and embedded in paraffin. 4-μm-thick liver sections were deparaffinized in xylene, and rehydrated through descending grades of ethanol. To evaluate liver fibrosis, sections were stained with Sirius red solution and subjected to immunohistochemical staining. Tissue sections, after deparaffinization, underwent a 16-hour incubation in a solution containing 0.1% Direct Red 80 (365548, Sigma-Aldrich) dissolved in Picric acid (P-201, Spectrum Chemical, CA, USA) for Sirius red staining. The sections were briefly immersed in a 0.01 N HCl solution (1129, Ducksan, Republic of Korea) for 2 min. and then rinsed with distilled water for destaining. Subsequently, the sections underwent dehydration through […] grades of ethanol. Immunohistochemical staining was performed using the Polyview Plus HRP-DAB (anti-Rabbit) Kit (ENZ-KIT159-0150, ENZO Life Science, NY, USA) following the manufacturers’ instructions. Deparaffinized sections were boiled in IHC-TekTM Epitope Retrieval solution (IW-1100, IHCWORLD, MD, USA) for 45 min., cooled for 1 h, incubated in a 3% H2O2 solution (69355-0350, JUNSEI, Japan) for 15 min., washed, and then incubated overnight with primary antibodies (α-SMA, ab5694, Abcam, 1:500 dilution; TNF-α, ab6671, Abcam, 1:100 dilution and IL-1β, ab9722, Abcam, 1:100 dilution). Subsequently, the sections were treated with Polyview Plus HRP for 2 h and developed with DAB chromogen/substrate. Stained […] sections were confirmed by light microscopy (Olympus BX53 upright microscope, Tokyo, Japan). The degree of hepatic fibrosis and immunohistochemical staining was quantified by morphometric analysis of stained liver sections using NIH ImageJ software.

in vitro [2] = conditions: mouse
HFD-fed C57BL/6J mice = assay: DIO mice: quantification of hepatic triglyceride; type: in vivo, mouse; conditions: DIO mice; for Hepatic TG levels, Mean Diff. (Vehicle vs. treated): Dunnett's multiple comparisons test; for Hepatic TG Levels, TG per protein, group mean: PO, liver
Procedure: Liver tissues were homogenized in 5% NP-40 using FastPrep-24. To solubilize fat, the homogenates were heated to 95 °C for 5 min and cooled at 23 °C, and repeated. Triglyceride Reagent (Sigma-Aldrich) or DW was added and incubated at 37 °C for 30 min to hydrolyze TG into glycerol. For the colorimetric assay of hydrolyzed TG levels, samples were incubated with Free Glycerol Reagent (Sigma-Aldrich) at 37 °C for 5 min. Differences in absorbance at 540 nm between hydrolyzed or non-hydrolyzed TG were quantified using a glycerol standard (Sigma-Aldrich). […]

in vitro [3] = conditions: human

Chain of CYP2C9 (P11712 whole entry): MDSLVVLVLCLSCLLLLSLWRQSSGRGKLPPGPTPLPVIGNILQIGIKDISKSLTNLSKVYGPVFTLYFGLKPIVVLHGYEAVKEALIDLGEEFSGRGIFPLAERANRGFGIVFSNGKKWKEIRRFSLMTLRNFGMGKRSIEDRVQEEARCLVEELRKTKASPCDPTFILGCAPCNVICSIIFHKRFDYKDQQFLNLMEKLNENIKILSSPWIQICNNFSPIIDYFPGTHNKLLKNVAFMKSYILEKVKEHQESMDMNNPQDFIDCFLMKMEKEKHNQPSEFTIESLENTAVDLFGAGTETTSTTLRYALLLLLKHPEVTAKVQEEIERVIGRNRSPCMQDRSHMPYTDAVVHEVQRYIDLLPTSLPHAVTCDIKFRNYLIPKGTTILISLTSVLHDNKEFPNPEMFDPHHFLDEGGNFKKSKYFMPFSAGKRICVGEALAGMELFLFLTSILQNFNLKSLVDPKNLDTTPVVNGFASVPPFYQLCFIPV
Chain of 5HT2A (P28223 whole entry): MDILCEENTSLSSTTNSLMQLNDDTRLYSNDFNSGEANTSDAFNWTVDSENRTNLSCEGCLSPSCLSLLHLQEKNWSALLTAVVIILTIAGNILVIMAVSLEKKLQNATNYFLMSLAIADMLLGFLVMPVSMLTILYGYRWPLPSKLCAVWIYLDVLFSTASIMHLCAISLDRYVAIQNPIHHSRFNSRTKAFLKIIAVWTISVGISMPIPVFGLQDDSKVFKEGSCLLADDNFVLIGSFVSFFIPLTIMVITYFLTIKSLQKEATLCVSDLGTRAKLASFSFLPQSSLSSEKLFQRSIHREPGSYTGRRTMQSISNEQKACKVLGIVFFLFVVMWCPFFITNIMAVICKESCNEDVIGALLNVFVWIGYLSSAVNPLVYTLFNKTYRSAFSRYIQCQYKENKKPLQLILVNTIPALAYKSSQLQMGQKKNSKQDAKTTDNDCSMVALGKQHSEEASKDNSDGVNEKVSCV

Which inhibition at 10 µM (CYP2C9) does the source give for Cc1nc2n(c(=O)c1CCN1CCC(=C3c4ccc(Cl)cc4CCc4cccnc43)CC1)CCCC2O (stereo not drawn) [Compound 11c] here?
Its inhibition at 10 µM is 3.17%.

And the inhibition at 1 µM (5HT2A)?
Its inhibition at 1 µM is 92.56 ± 0.77%.

And the remaining at 3 h, 10 μM [1]?
The remaining at 3 h, 10 μM was 84.6%.

What about the “TNF-α immunohistochemical staining (TNF-a area), Average” value (TNF-α; 11c 5 mpk) of the same compound?
The value was 4.057.

What about the “TNF-α immunohistochemical staining (TNF-a area), individual mouse” value (TNF-α; 11c 5 mpk) of the same compound?
Its value is 3.240 and 5.741 and 5.588 and 3.146 and 2.573.

And the “TNF-α immunohistochemical staining (TNF-a area), Average” value (TNF-α; 11c 10mpk)?
Its value is 5.049.

What about the “TNF-α immunohistochemical staining (TNF-a area), individual mouse” value (TNF-α; 11c 10mpk) of the same compound?
The value was 7.848 and 3.111 and 8.161 and 2.686 and 3.441.

And the “TNF-α expression (immunohistochemical staining)” value (TNF-α; CDAHFD-fed 11c vs CDAHFD-fed vehicle group)?
Its value is “significant decrease”.

What about the IC50 (in vitro [2]) of the same compound?
The IC50 was greater than 100 µM.

What about the “Hepatic TG levels, Mean Diff. (Vehicle vs. treated)” value (HFD-fed C57BL/6J mice; 5mpk) of the same compound?
Its value is 5.95 mg/g protein.

And the “Hepatic TG levels, Mean Diff. (Vehicle vs. treated)” value (HFD-fed C57BL/6J mice; 10mpk)?
The value was 31.37 mg/g protein.

What about the “Hepatic TG Levels, TG per protein, group mean” value (HFD-fed C57BL/6J mice; 5mpk) of the same compound?
The value was 79.94 mg/g protein.

What about the “Hepatic TG Levels, TG per protein, group mean” value (HFD-fed C57BL/6J mice; 10mpk) of the same compound?
The value was 54.51 mg/g protein.

What about the “hepatic TG concentration” value (HFD-fed C57BL/6J mice; vs vehicle) of the same compound?
Its value is “significant reduction; also recorded: decreased”.

And the IC50 (in vitro [3])?
The IC50 was greater than 100 µM.

From article PMC10799935, “Discovery of a peripheral 5HT2A antagonist as a clinical candidate for metabolic dysfunction-associated steatohepatitis” (Nature Communications, 2024)
